According to patent US7145009B2, “Pirazino(aza)indole derivatives” (priority 1999, dated 2006):
Structures can show the parent of a compound that is named as a salt. Where two headings read alike, the source gives them in different places.

What was measured:
[1] = molecular target: T1, 5-HT2c receptors in a CHO cell line (Homo sapiens, UniProt P28335); test: Binding to 5-HT2c receptor, [3H]-5-HT, Method (a); conditions: read-out: Ki (2C)
T1 construct: expressed in transfected cells; host or cells: CHO cell line
T1 sequence (P28335 33-458): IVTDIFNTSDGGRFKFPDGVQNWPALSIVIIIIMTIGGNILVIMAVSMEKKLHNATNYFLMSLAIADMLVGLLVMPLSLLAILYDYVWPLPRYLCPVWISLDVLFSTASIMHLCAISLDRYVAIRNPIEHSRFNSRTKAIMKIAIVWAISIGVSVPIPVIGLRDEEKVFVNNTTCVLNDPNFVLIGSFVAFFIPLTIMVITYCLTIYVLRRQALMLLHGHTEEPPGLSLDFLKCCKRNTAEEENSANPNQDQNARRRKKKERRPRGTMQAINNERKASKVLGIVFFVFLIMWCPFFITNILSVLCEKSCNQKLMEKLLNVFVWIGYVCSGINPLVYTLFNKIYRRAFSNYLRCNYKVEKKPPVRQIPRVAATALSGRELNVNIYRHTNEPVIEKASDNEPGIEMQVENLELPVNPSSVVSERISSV
Description: (§1) The binding of compounds of formula (I) to serotonin receptors was determined in vitro by standard methods. The preparations were investigated in accordance with the assays given hereinafter.
Method (a): For the binding to the 5-HT2c receptor the 5-HT2c receptors were radiolabelled with [^3H]-5-HT. The affinity of the compounds for 5-HT2c receptors in a CHO cell line was determined according to the procedure of D. Hoyer, G. Engel and H. O. Kalkman, European J. Pharmacol., 1985, 118, 13–23.

[2] = test system: 5-HT2c syndrome (splayed limbs, hunched posture, retro-pulsion); test: 5-HT2c syndrome, in vivo efficacy of 5-HT2C agonists; conditions: rats, 1 mg/kg s.c.
Description: The efficacy of 5-HT2C agonists was assessed for ability to induce a specific syndrome.
The 5-HT2c syndrome is a rapid screening method to assess the in vivo efficacy of 5-HT2c agonists through their ability to induce three specific behaviours in rats. The animals are dosed with either a positive control (mCPP), test compound or vehicle, either s.c. or p.o. The animals are observed on an open bench, typically 30, 60 and 180 minutes and the degree of syndrome is assessed over a two minute period on a scale of 0–3 depending on the presence and severity of splayed limbs, hunched posture and retro-pulsion, the three specific behaviours which constitute the syndrome. Data is analysed using Kruskal-Wallis Analysis of Variance followed with appropriate post-hoc tests. All statistical analysis are conducted using Excel version 7.0 (Microsoft Corp.) and Statistica version 5.0 (Stasoft, Inc.).

[3] = molecular target: T2, h5-HT2A receptor (CHO cells) (Homo sapiens, UniProt P28223); test: Functional activity, FLIPR calcium assay, h5-HT2A; format: cell-based; conditions: for Emax: CHO, read-out: h5-HT2A Relative Efficacy
T2 construct: expressed in transfected cells; host or cells: CHO cells
T2 sequence (P28223 whole entry): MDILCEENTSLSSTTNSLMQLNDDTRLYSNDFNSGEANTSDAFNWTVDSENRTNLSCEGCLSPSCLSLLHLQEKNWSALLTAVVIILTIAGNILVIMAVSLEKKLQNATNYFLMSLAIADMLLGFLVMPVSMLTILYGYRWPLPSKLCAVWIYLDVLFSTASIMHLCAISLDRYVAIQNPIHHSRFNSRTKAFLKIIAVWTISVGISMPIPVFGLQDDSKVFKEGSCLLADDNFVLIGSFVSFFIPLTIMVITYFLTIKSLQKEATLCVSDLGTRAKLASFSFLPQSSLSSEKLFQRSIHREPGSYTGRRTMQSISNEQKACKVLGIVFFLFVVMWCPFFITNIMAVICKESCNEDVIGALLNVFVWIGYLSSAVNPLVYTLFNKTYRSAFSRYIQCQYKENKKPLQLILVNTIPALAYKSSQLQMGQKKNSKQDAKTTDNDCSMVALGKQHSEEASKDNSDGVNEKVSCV
Description: (§2) The functional activity of compounds of formula (I) was assayed using a Fluorimetric Imaging Plate reader (FLIPR):
(§3) CHO cells expressing either the h5-HT2C or h5-HT2A receptors were counted and plated into standard 96 well microtitre plates before the day of testing to give a confluent monolayer. The following day the cells were dye loaded with the calcium sensitive dye Fluo 3-AM by incubation with serum free culture maintenance media containing pluronic acid and Fluo 3-AM dissolved in DMSO at 37° C. in a CO2 incubator at 95% humidity for approximately 90 minutes. Unincorporated dye was removed by washing with Hanks balanced salt solution containing 20 mM HEPES and 2.5 mM probenecid (the assay buffer) using an automated cell washer to leave a total volume of 100 μl/well.
(§4) The drug (dissolved in 50 μl of assay buffer) was added at a rate of 70 μl/sec to each well of the FLIPR 96 well plate during fluorescence measurements. The measurements are taken at 1 sec intervals and the maximum fluorescent signal was measured (approx 10–15 secs after drug addition) and compared with the response produced by 10 μM 5-HT (defined as 100%) to which it is expressed as a percentage response (relative efficacy). Dose response curves were constructed using Graphpad Prism (Graph Software Inc.).

[4] = molecular target: T3, human 5-HT2B receptors in a CHO cell line (Homo sapiens, UniProt P41595); test: Binding to 5-HT2B receptor, [3H]-5-HT, Method (b); conditions: read-out: Ki (2B)
T3 construct: expressed in transfected cells; host or cells: CHO cell line
T3 sequence (P41595 whole entry): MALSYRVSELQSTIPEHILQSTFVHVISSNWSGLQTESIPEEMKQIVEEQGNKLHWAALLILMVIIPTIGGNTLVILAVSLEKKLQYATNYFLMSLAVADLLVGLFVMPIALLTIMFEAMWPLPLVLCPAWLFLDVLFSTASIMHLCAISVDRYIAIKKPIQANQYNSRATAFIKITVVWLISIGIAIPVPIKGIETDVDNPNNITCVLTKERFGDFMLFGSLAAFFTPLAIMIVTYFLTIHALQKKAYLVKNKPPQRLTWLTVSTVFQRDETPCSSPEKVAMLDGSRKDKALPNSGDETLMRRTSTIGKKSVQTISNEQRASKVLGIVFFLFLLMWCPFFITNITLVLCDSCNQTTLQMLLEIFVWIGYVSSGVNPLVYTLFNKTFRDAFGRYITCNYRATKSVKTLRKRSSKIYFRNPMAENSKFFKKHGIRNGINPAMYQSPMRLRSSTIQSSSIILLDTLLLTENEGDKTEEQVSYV
Description: as §1
Method (b): For the binding to the 5-HT2B receptor the 5-HT2B receptors were radiolabelled with [^3H]-5-HT. The affinity of the compounds for human 5-HT2B receptors in a CHO cell line was determined according to the procedure of K. Schmuck, C. Ullmer, P. Engels and H. Lubbett, FEBS Lett., 1994, 342, 85–90.

[5] = molecular target: T4, 5-HT2A receptors in a CHO cell line (Homo sapiens, UniProt P28223); test: Binding to 5-HT2A receptor, [125I]-DOI, Method (c); conditions: read-out: Ki (2A)
T4 construct: expressed in transfected cells; host or cells: CHO cell line
T4 sequence (P28223 whole entry): as the sequence (P28223 whole entry) above
Description: as §1
Method (c): For the binding to the 5-HT2A receptor the 5-HT2A receptors were radiolabelled with […]. The affinity of the compounds for 5-HT2A receptors in a CHO cell line was determined according to the procedure of D. J. McKenna and S. J. Peroutka, J. Neurosci., 1989, 9/10, 3482–90.

[6] = molecular target: T5, h5-HT2C receptor (CHO cells) (Homo sapiens, UniProt P28335); test: Functional activity, FLIPR calcium assay, h5-HT2C; format: cell-based; conditions: for Emax: CHO, read-out: h5-HT2C Relative Efficacy
T5 construct: expressed in transfected cells; host or cells: CHO cells
T5 sequence (P28335 33-458): T1 sequence (P28335 33-458)
Description: as §2, §3, §4

5-HT1A receptors = molecular target: T6, 5-HT1A receptors (Homo sapiens, UniProt P08908); conditions: literature report; cited from earlier work
T6 sequence (P08908 1-422): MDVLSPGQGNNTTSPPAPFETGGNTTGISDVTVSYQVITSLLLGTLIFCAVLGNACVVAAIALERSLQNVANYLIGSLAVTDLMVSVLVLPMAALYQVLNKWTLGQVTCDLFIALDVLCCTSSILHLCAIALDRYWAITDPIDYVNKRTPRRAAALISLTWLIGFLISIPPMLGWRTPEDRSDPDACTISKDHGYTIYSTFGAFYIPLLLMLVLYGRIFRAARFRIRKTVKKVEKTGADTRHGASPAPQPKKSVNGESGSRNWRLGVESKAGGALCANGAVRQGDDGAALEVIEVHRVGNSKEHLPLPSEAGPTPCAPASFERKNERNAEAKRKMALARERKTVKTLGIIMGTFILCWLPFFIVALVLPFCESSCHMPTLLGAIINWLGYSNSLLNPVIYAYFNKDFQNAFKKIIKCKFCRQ

food intake = conditions: rats, literature reports; cited from earlier work
[7] = FLIPR, CHO cells, Fluo 3-AM, read-out: h5-HT2C EC50

For C[C@H]1CN2c3cc(Cl)ccc3C[C@@H]2CN1 (as salt: hydrochloride) [Example 11, (3S,10aR) 7-Chloro-3-methyl-1,2,3,4,10,10a-hexahydropyrazino[1,2-a]indole hydrochloride], the melting point was 265 °C (dec.).
Clc1ccc2c(n1)N1CCNCC1C2 (racemic) (as salt: fumarate) [Example 6, (RS) 7-Chloro-1,2,3,4,10,10a-6-aza-hexahydropyrazino[1,2-a]-7-indole fumarate] showed a melting point of 148 °C.
In the case of Fc1cc2c(cc1Cl)N1CCNCC1C2 (racemic) (as salt: fumarate) [Example 12, (RS) 7-Chloro-8-fluoro-1,2,3,4,10,10a-hexahydropyrazino[1,2-a]indole hemifumarate], the melting point is reported as 195 to 197 °C.
For CSc1ccc2c(c1)N1CCNCC1C2 (racemic) (as salt: fumarate) [Example 13, (RS) 7(Methylthio)-1,2,3,4,10,10a-hexahydropyrazino[1,2-a]indole fumarate], the melting point was 196 to 198 °C.
For Clc1ccc2c(c1)N1CCNCC1C2 (racemic) (as salt: hydrochloride) [Example 1, (RS) 7-Chloro-1,2,3,4,10,10a-hexahydropyrazino[1,2-a]indole hydrochloride], the melting point was 235 °C (dec.).
In the case of Clc1ccc2c(c1)CC1CNCCN21 (racemic) (as salt: hydrochloride) [Example 2, (RS) 8-Chloro-1,2,3,4,10,10a-hexahydropyrazino[1,2-a]indole hydrochloride], the melting point is reported as 258 to 262 °C (dec.).
For Clc1cccc2c1CC1CNCCN21 (racemic) (as salt: hydrochloride) [Example 3, (RS) 9-Chloro-1,2,3,4,10,10a-hexahydropyrazino[1,2-a]indole hydrochloride], the melting point was 265 to 269 °C (dec.).
Compound Brc1ccc2c(c1)N1CCNCC1C2 (racemic) (as salt: hydrochloride) [Example 4, (RS) 7-Bromo-1,2,3,4,10,10a-hexahydropyrazino[1,2-a]indole hydrochloride] has a melting point of 243 to 245 °C.
For Clc1ccc2c(c1)N1CCNCC1C2 (racemic) [Example 1, (RS) 7-Chloro-1,2,3,4,10,10a-hexahydropyrazino[1,2-a]indole hydrochloride], the Ki [1] was 0.031 µM, the “time for which significant pharmacological efficacy is maintained (5-HT2c syndrome)” value [2] was “at least 180 minutes” and the EC50 [3] was 0.513 µM. It also gave an Emax [3] of 53%, a Ki [4] of 0.032 µM and a Ki [5] of 0.053 µM. The EC50 [6] was 0.018 µM and the Emax [6] was 91%.
For Clc1ccc2c(c1)CC1CNCCN21 (racemic) [Example 2, (RS) 8-Chloro-1,2,3,4,10,10a-hexahydropyrazino[1,2-a]indole hydrochloride], the EC50 [3] was 0.667 µM, the Emax [3] was 88% and the Emax [6] was 84%. The EC50 [6, 7] was 0.162 µM.
Clc1cccc2c1CC1CNCCN21 (racemic) [Example 3, (RS) 9-Chloro-1,2,3,4,10,10a-hexahydropyrazino[1,2-a]indole hydrochloride] gave an EC50 [3] of 1.02 µM, an Emax [3] of 49% and an Emax [6] of 82%. For the same compound, the EC50 [6, 7] was 0.141 µM.
Brc1ccc2c(c1)N1CCNCC1C2 (racemic) [Example 4, (RS) 7-Bromo-1,2,3,4,10,10a-hexahydropyrazino[1,2-a]indole hydrochloride] showed an EC50 [3] of 0.244 µM, an Emax [3] of 58% and an EC50 [6] of 0.013 µM. It also gave an Emax [6] of 100%.
For Cc1cc2c(cc1Cl)N1CCNCC1C2 (racemic) [Example 5, (RS) 7-Chloro-8-methyl-1,2,3,4,10,10a-hexahydropyrazino[1,2-a]indole fumarate], the EC50 [3] was 0.11 µM, the Emax [3] was 87% and the EC50 [6] was 0.02 µM. It also gave an Emax [6] of 93%.
With Clc1ccc2c(n1)N1CCNCC1C2 (racemic) [Example 6, (RS) 7-Chloro-1,2,3,4,10,10a-6-aza-hexahydropyrazino[1,2-a]-7-indole fumarate] the EC50 [3] was 1.68 µM, the Emax [3] was 47% and the Emax [6] was 100%. It also gave an EC50 [6, 7] of 0.174 µM.
Compound Fc1cc2c(cc1Cl)N1CCNCC1C2 (racemic) [Example 12, (RS) 7-Chloro-8-fluoro-1,2,3,4,10,10a-hexahydropyrazino[1,2-a]indole hemifumarate] has an EC50 [3] of 0.106 µM, an Emax [3] of 74% and an EC50 [6] of 0.022 µM. For the same compound, the Emax [6] was 92%.
CSc1ccc2c(c1)N1CCNCC1C2 (racemic) [Example 13, (RS) 7(Methylthio)-1,2,3,4,10,10a-hexahydropyrazino[1,2-a]indole fumarate] gave an EC50 [3] of 0.176 µM, an Emax [3] of 59% and an EC50 [6] of 0.086 µM. The Emax [6] was 87%.
In the case of c1ccc2c(c1)CC1CNCCN21 (stereo not shown) [1,2,3,4,10,10a-Hexahydropyrazino[1,2-a]indole], the “selectivity for 5-HT1A receptors over 5-HT2 (binding affinity)” value (5-HT1A receptors) is given as “ten fold”.
With Clc1ccc2c(c1)N1CCNC[C@@H]1C2 [Example 7, (10aS) 7-Chloro-1,2,3,4,10,10a-hexahydropyrazino[1,2-a]indole hydrochloride] the EC50 [3] was 0.144 µM, the Emax [3] was 67% and the EC50 [6] was 0.161 µM. It also gave an Emax [6] of 86%.
Clc1ccc2c(c1)N1CCNC[C@H]1C2 [Example 8, (10aR) 7-Chloro-1,2,3,4,10,10a-hexahydropyrazino[1,2-a]indole hydrochloride] gave an EC50 [3] of 0.1 µM, an Emax [3] of 59% and an EC50 [6] of 0.003 µM. For the same compound, the Emax [6] was 87%.
In the case of C[C@H]1CN2c3cc(Cl)ccc3C[C@@H]2CN1 [Example 11, (3S,10aR) 7-Chloro-3-methyl-1,2,3,4,10,10a-hexahydropyrazino[1,2-a]indole hydrochloride], the EC50 [3] is reported as 0.527 µM, the Emax [3] is reported as 38% and the EC50 [6] is reported as 0.058 µM. It also gave an Emax [6] of 92%.
For Clc1cccc(N2CCNCC2)c1 [mCPP, m-chlorophenylpiperazine], the “effect on food intake” value (food intake) is listed as “reduce food intake”.
